Results: US20060247416A1, “HIV gp41 HR2-derived synthetic peptides, and their use in therapy to inhibit transmission of human immunodeficiency virus” (priority 2004, published 2006)

What was measured:
[1] = 10 mg/ml in PBS, about pH 7.3 to about pH 7.5, 37° C., after several hours
Description: Each was individually tested for stability in aqueous solution by adding the peptide at a concentration of 10 mg/ml to phosphate-buffered saline (PBS), and by measuring (e.g., by HPLC) at different time points over a period of 1 week (168 hours) the amount of peptide remaining in solution at a range of about pH 7.3 to about pH 7.5 at 37° C.

[2] = test system: HIV-1LAI; conditions: Lawless et al., 1996; cited from earlier work
[3] = test system: HIV-1; conditions: regimen of antiviral agents containing T20 versus same regimen without T20; cited from earlier work

## enfuvirtide
[1]
  stability in aqueous solution: minimal to no peptide detected in solution
[2]
  EC50 against HIV-1LAI: 0.5 ng/mL
[3]
  HIV-1 viral load: significantly reduces
  circulating CD4+ cell population: significantly increases
